Data taken from ChEMBL document CHEMBL3885881, “DrugMatrix”.

Species on record: Rattus norvegicus
Assay: DrugMatrix - Regimen: Daily Repeat
Type: toxicity, organism-based, Sprague-Dawley
Design: regimen Daily Repeat, gender Male, age 6-8 weeks
Details: in vivo, po, route oral GAVAGE, […]; for ABSOLUTE BASOPHIL / ABSOLUTE EOSINOPHIL / ABSOLUTE LYMPHOCYTE / ABSOLUTE MONOCYTE / ABSOLUTE SEGMENTED NEUTROPHIL / BASOPHIL / EOSINOPHIL / ERYTHROCYTE COUNT / HEMATOCRIT / HEMOGLOBIN / LEUKOCYTE COUNT / LYMPHOCYTE / MEAN CORPUSCULAR HEMOGLOBIN / MEAN CORPUSCULAR HEMOGLOBIN CONCENTRATION / MEAN CORPUSCULAR VOLUME / MONOCYTE / NEUTROPHIL / NUCLEATED RED BLOOD CELLS / PLATELET COUNT: tissue Blood; for ALANINE AMINOTRANSFERASE / ALBUMIN / ALKALINE PHOSPHATASE / ASPARTATE AMINOTRANSFERASE / BLOOD UREA NITROGEN / CARBON DIOXIDE / CHLORIDE / CHOLESTEROL / CREATINE PHOSPHOKINASE / CREATININE / GLUCOSE / LACTATE DEHYDROGENASE / LIPASE / PHOSPHORUS / POTASSIUM / SODIUM / TOTAL BILIRUBIN / TOTAL PROTEIN / URIC ACID: tissue Plasma
[1] = 0 mg/kg, 72 h, dose level Control, time 3 day
[2] = 0 mg/kg, 120 h, dose level Control, time 5 day
[3] = 5 mg/kg, 72 h, dose level Low, time 3 day

O=C(Nc1ccc(Cl)c(Cl)c1)c1cc(Cl)cc(Cl)c1O [3,3',4',5-TETRACHLOROSALICYLANILIDE]
ABSOLUTE BASOPHIL [1]: 0 CELLS/uL | ABSOLUTE EOSINOPHIL [1]: 0 CELLS/uL | ABSOLUTE LYMPHOCYTE [1]: 11091.17 CELLS/uL | ABSOLUTE MONOCYTE [1]: 172.17 CELLS/uL | ABSOLUTE SEGMENTED NEUTROPHIL [1]: 1186.67 CELLS/uL | BASOPHIL [1]: 0% | EOSINOPHIL [1]: 0% | ERYTHROCYTE COUNT [1]: 5.87 x10E6/uL | HEMATOCRIT [1]: 36.87% | HEMOGLOBIN [1]: 14.03 G/DL | LEUKOCYTE COUNT [1]: 12.45 x10E3/uL | LYMPHOCYTE [1]: 88.67% | MEAN CORPUSCULAR HEMOGLOBIN [1]: 23.93 pg | MEAN CORPUSCULAR HEMOGLOBIN CONCENTRATION [1]: 38.1 G/DL | MEAN CORPUSCULAR VOLUME [1]: 62.73 fL | MONOCYTE [1]: 1.5% | NEUTROPHIL [1]: 9.83% | NUCLEATED RED BLOOD CELLS [1]: 0 /100WBC | PLATELET COUNT [1]: 1150.33 x10E3/uL | ALANINE AMINOTRANSFERASE [1]: 67.17 u/L | ALBUMIN [1]: 4.03 G/DL | ALKALINE PHOSPHATASE [1]: 462.5 u/L | ASPARTATE AMINOTRANSFERASE [1]: 88 u/L | BLOOD UREA NITROGEN [1]: 13.17 mg/dL | CARBON DIOXIDE [1]: 29.33 mmol/L | CHLORIDE [1]: 101 MEQ/L | CHOLESTEROL [1]: 69.17 mg/dL | CREATINE PHOSPHOKINASE [1]: 292.5 u/L | CREATININE [1]: 0.17 mg/dL | GLUCOSE [1]: 167.5 mg/dL | LACTATE DEHYDROGENASE [1]: 198.5 u/L | LIPASE [1]: 10.67 u/L | PHOSPHORUS [1]: 11.73 mg/dL | POTASSIUM [1]: 5.91 MEQ/L | SODIUM [1]: 143.3 MEQ/L | TOTAL BILIRUBIN [1]: 0.18 mg/dL | TOTAL PROTEIN [1]: 5.7 G/DL | URIC ACID [1]: 1.3 mg/dL | ABSOLUTE BASOPHIL [2]: 0 CELLS/uL | ABSOLUTE EOSINOPHIL [2]: 64.33 CELLS/uL | ABSOLUTE LYMPHOCYTE [2]: 12494.67 CELLS/uL | ABSOLUTE MONOCYTE [2]: 117 CELLS/uL | ABSOLUTE SEGMENTED NEUTROPHIL [2]: 1340.67 CELLS/uL | BASOPHIL [2]: 0% | EOSINOPHIL [2]: 0.33% | ERYTHROCYTE COUNT [2]: 5.82 x10E6/uL | HEMATOCRIT [2]: 36.97% | HEMOGLOBIN [2]: 14.18 G/DL | LEUKOCYTE COUNT [2]: 14.02 x10E3/uL | LYMPHOCYTE [2]: 89% | MEAN CORPUSCULAR HEMOGLOBIN [2]: 24.42 pg | MEAN CORPUSCULAR HEMOGLOBIN CONCENTRATION [2]: 38.4 G/DL | MEAN CORPUSCULAR VOLUME [2]: 63.52 fL | MONOCYTE [2]: 0.83% | NEUTROPHIL [2]: 9.83% | NUCLEATED RED BLOOD CELLS [2]: 0 /100WBC | PLATELET COUNT [2]: 1097.83 x10E3/uL | ALANINE AMINOTRANSFERASE [2]: 58.83 u/L | ALBUMIN [2]: 3.92 G/DL | ALKALINE PHOSPHATASE [2]: 414.17 u/L | ASPARTATE AMINOTRANSFERASE [2]: 89.17 u/L | BLOOD UREA NITROGEN [2]: 16.83 mg/dL | CARBON DIOXIDE [2]: 29.17 mmol/L | CHLORIDE [2]: 100.33 MEQ/L | CHOLESTEROL [2]: 54.5 mg/dL | CREATINE PHOSPHOKINASE [2]: 386.17 u/L | CREATININE [2]: 0.23 mg/dL | GLUCOSE [2]: 184.17 mg/dL | LACTATE DEHYDROGENASE [2]: 229.17 u/L | LIPASE [2]: 10.83 u/L | PHOSPHORUS [2]: 10.88 mg/dL | POTASSIUM [2]: 5.97 MEQ/L | SODIUM [2]: 142.2 MEQ/L | TOTAL BILIRUBIN [2]: 0.12 mg/dL | TOTAL PROTEIN [2]: 5.63 G/DL | URIC ACID [2]: 1.55 mg/dL | ABSOLUTE BASOPHIL [3]: 0 CELLS/uL | ABSOLUTE EOSINOPHIL [3]: 173.67 CELLS/uL | ABSOLUTE LYMPHOCYTE [3]: 11546 CELLS/uL | ABSOLUTE MONOCYTE [3]: 53.33 CELLS/uL | ABSOLUTE SEGMENTED NEUTROPHIL [3]: 1927 CELLS/uL | BASOPHIL [3]: 0% | EOSINOPHIL [3]: 1.33% | ERYTHROCYTE COUNT [3]: 5.84 x10E6/uL | HEMATOCRIT [3]: 36.37% | HEMOGLOBIN [3]: 14.03 G/DL | LEUKOCYTE COUNT [3]: 13.7 x10E3/uL | LYMPHOCYTE [3]: 84% | MEAN CORPUSCULAR HEMOGLOBIN [3]: 24.03 pg | MEAN CORPUSCULAR HEMOGLOBIN CONCENTRATION [3]: 38.6 G/DL | MEAN CORPUSCULAR VOLUME [3]: 62.27 fL | MONOCYTE [3]: 0.33% | NEUTROPHIL [3]: 14.33% | NUCLEATED RED BLOOD CELLS [3]: 0 /100WBC | PLATELET COUNT [3]: 1088.67 x10E3/uL | ALANINE AMINOTRANSFERASE [3]: 64 u/L | ALBUMIN [3]: 3.97 G/DL | ALKALINE PHOSPHATASE [3]: 434.67 u/L | ASPARTATE AMINOTRANSFERASE [3]: 108.33 u/L | BLOOD UREA NITROGEN [3]: 14 mg/dL | CARBON DIOXIDE [3]: 23 mmol/L | CHLORIDE [3]: 102.33 MEQ/L | CHOLESTEROL [3]: 66.33 mg/dL | CREATINE PHOSPHOKINASE [3]: 588 u/L | CREATININE [3]: 0.19 mg/dL | GLUCOSE [3]: 171.67 mg/dL | LACTATE DEHYDROGENASE [3]: 260 u/L | LIPASE [3]: 9.67 u/L | PHOSPHORUS [3]: 12.87 mg/dL | POTASSIUM [3]: 6.31 MEQ/L | SODIUM [3]: 141.93 MEQ/L | TOTAL BILIRUBIN [3]: 0.13 mg/dL | TOTAL PROTEIN [3]: 5.57 G/DL | URIC ACID [3]: 1.83 mg/dL
